The values that follow come from patent publication US7795310B2, “Methods and reagents for the treatment of metabolic disorders” (CombinatoRx, Inc., priority 2004, dated 2010).

Counter-ions that a name gives are not always drawn. Like-named read-outs stand apart in the source and are kept apart here.

Assay [1] deals with 3T3-L1 adipocytes. Nature of the assay: Insulin-stimulated 14C-glucose uptake in differentiated adipocytes (Example 1). It is filed as cell-based, mouse. Particulars: Bezafibrate 0 μM. The procedure: Differentiated mouse adipocytes were employed to identify combinations of agents that have the ability to increase glucose uptake upon insulin stimulation, as detected by scintillation counting of radiolabelled glucose (using, for example, the Perkin Elmer 1450 Microbeta JET reader). These assays were conducted as follows.
(§1) Complete media, also referred to as “Prees” media, was prepared as follows. Dulbecco's Modified Eagle's Medium (DMEM) was supplemented with L-glutamine, penicillin-G and streptomycin (pen/strep), and heat-inactivated fetal bovine serum (FBS) (heat inactivated at […] for 30 minutes). Because serum can affect the growth, adherence, and differentiation of cells, any new lot of serum was first tested prior to use. Media was equilibrated in the incubator (5% CO2) until the pH was within the proper range (˜7), as indicated by the red/orange color of the indicator dye. If the media became pink (indicating a high pH), we discarded the media as basic conditions can affect cells and denature the insulin used in the differentiation medium-1 (DM1) and the differentiation medium-2 (DM2).
Differentiation media-1 (DM1) was prepared by supplementing DMEM with 10% FBS, L-glutamine, pen/strep, IBMX (375 μM), insulin (120 nM), and dexamethasone (188 nM). Differentiation media-2 (DM2) was prepared by supplementing DMEM with 10% FBS, L-glutamine, pen/strep, and insulin (120 nM).
(§2) Cell culture plates were gelatinized as follows. Gelatin (1% w/v in distilled water) was autoclaved and stored at room temperature. The bottom of each cell culture well was covered uniformly in the gelatin solution, ensuring that no bubbles were formed. This solution was removed leaving behind a thin film of gelatin. These plates were left to dry under the tissue culture hood. Plates were next washed with PBS, after which a 0.5% glutaric dialdehyde solution (glutaraldehyde in distilled water) was added to the cell culture wells. After ten minutes, wells were washed twice with DMEM containing pen-strep. Each washing step should last for approximately five minutes.
(§3) 3T3-L1 pre-adipocyte cells were split approximately every 2-3 days or upon reaching a confluence of approximately 60%. Overconfluency may affect the ability of these cells to differentiate into adipocytes.
(§4) D-(+)-glucose (“cold” glucose, not radiolabeled) was added to DPBS mix to a final concentration of 10 mM.
(§5) Lysis buffer, a mixture of a base (e.g., sodium hydroxide at a final concentration of 0.5N) and a detergent (e.g., sodium dodecyl sulphate (SDS) diluted to a final concentration of 0.1% w/v) was freshly prepared each time (within one to two hours of use). Prior to use, lysis buffer was warmed up to a temperature exceeding that of room temperature for a period of approximately 30 minutes to avoid precipitation of the buffer.
(§6) Pre-adipocyte 3T3-L1 cells were plated at a density of approximately 5000 cells/well (in black NUNC 96 well plate). These cells were differentiated into adipocytes in two separate steps. Initially, cells were cultured in differentiation medium-1 (DM1) (day 1 of adipocyte differentation) for a period of two to three days. DM1 prevents proliferation and induces the expression of adipocyte-specific genes. Cells were next cultured in differentiation medium-2 (DM2) for 3 to 4 days, after which the culture media was replaced by fresh DM2. The glucose uptake assay was performed at day 9-15 of differentiation.
Two days prior to the experiment (at day 7-13 of differentiation), DM2 was removed and replaced with fresh Prees media. Candidate compounds were added at this time, allowing an incubation period of approximately 48 hours. On the day of the experiment, cells (now at day 9 to 15 of differentiation) were serum starved for three hours in DPBS, magnesium sulfate (0.8 mM), and Hepes (10 mM) at pH ˜7. After this incubation period, fresh DPBS containing insulin (10 nM) was added to the adipocytes. Fresh DPBS without any insulin were placed on cells that served as a negative control. […]

Assay [2] has as its system 3T3-L1 adipocytes. Nature of the assay: Screening assay: insulin-stimulated 14C-glucose uptake by adipocytes (Example 3; F, sF, S/N). It is filed as cell-based, mouse. The method, then:
These assays were conducted as follows.
as §1
Differentiation media-2 (DM2) was prepared by supplementing DMEM with 10% FBS, L-glutamine, pen/strep, and insulin (120 nM).
as §2, §3, §4, §5, §6
Two days prior to the experiment (at day 7-13 of differentiation), DM2 was removed and replaced with fresh Prees media. Candidate compounds were added at this time, allowing an incubation period of approximately 48 hours. On the day of the experiment, cells (now at day 9 to 15 of differentiation) were serum starved for three hours in DPBS, magnesium sulfate (0.8 mM), and Hepes (10 mM) at pH ˜7. After this incubation period, fresh DPBS containing insulin (10 nM) was added to the adipocytes. Fresh DPBS without any insulin were placed on cells that served as a negative control. Following an incubation period of 25 minutes at 37° C., radioactive glucose (labeled with ^14C, at a final concentration of 0.04 mM, ˜0.26 μCi ^14C-glucose in each well) was added to the media for a period of 15 minutes at room temperature. Media was next removed and cells were washed thoroughly and lysed. Upon lysis, cells form a small, cloudy mass, detached from the well bottom.

Another assay concerns human skeletal myoblasts. The assay can be described thus: Glycogen synthesis from radiolabeled glucose in skeletal myoblasts (Example 3; Xlsyz). It is filed as cell-based. The procedure:
In another set of experiments, human skeletal myoblasts obtained by the conditional immortalization of cells derived from a non-diabetic subject, were used to screen the effect of a multitude of compounds on glycogen synthesis. For each compound, two doses were tested in triplicate. The vehicle was used as a negative control and insulin was used as a positive control. Prior to treatment, cells were serum-starved for 12 to 18 hours in Ham's F10 medium. Cells were next incubated either with the test compounds or control for a period of two hours in serum-free media containing radiolabeled glucose, after which, glycogen synthesis was measured.

Where [3] appears, read: insulin-stimulated 14C-glucose uptake, 3T3-L1 adipocytes, about 48 h with compound, 10 nM insulin, test concentration per compound in column CRx uM.
Where [4] appears, read: glycogen synthesis, human skeletal myoblasts, 2 h, dose (H).
Where [5] appears, read: glycogen synthesis, human skeletal myoblasts, 2 h, dose (L), concentration per compound uM(L).

As to `O=C(O)c1cc(-c2ccc(F)cc2F)ccc1O` [Diflunisal, 2′,4′-difluoro-4-hydroxy-[1,1′-biphenyl]-3-carboxylic acid], the “average fold increase in insulin-stimulated glucose uptake compared to vehicle treated control” value in the assay on 3T3-L1 adipocytes [1] (Diflunisal 9 μM, average of four biological replicates) was 1.12 fold; with 3T3-L1 adipocytes [1] (Diflunisal 18 μM, average of four biological replicates), 1.19 fold; in the assay with 3T3-L1 adipocytes [1] (Diflunisal 36 μM, average of four biological replicates), 1.52 fold.
Consider Metaproterenol Hemisulfate Salt, for which the “CRx F” value in the assay on 3T3-L1 adipocytes [2] (setting [3]) amounted to 1.7249. For the same molecule, the “Xlsyz F(H)” value in the assay on human skeletal myoblasts (setting [4]) worked out at 1.1261. Moreover, the “Xlsyz F(L)” value with human skeletal myoblasts (setting [5]) is recorded as 1.4052.
Taken in the same sequence, the figures for `CCCCNCC(O)c1ccc(O)cc1` (stereo not drawn) [Bamethan] were 1.1895, 1.3846 and 0.9106.
For the molecule `CCC(Cc1c(I)cc(I)c(O)c1I)C(=O)O` (stereo not drawn) [Iohenoxic Acid], the “CRx F” value in the assay with 3T3-L1 adipocytes [2] (setting [3]) was 1.0641. Further, in the assay on human skeletal myoblasts (setting [4]), the “Xlsyz F(H)” value was found to be 1.2119. In addition, the “Xlsyz F(L)” value with human skeletal myoblasts (setting [5]) was determined as 1.0504.
Taken in the same sequence, the figures for `CCN(CC)C(=S)[S-].CCN(CC)C(=S)[S-].[Pb+2]` [LEAD DIETHYLDITHIOCARBAMATE] were 1.524, 1.2527 and 1.064.
`O=C(O)Cc1ccccc1Nc1c(Cl)cccc1Cl` [Diclofenac Sodium]: the “CRx F” value with 3T3-L1 adipocytes [2] (setting [3]) was determined as 1.3966.
Consider `CCN(CC)CCCC(C)Nc1c2ccc(Cl)cc2nc2ccc(OC)cc12` (stereo not drawn) [QUINACRINE], for which, in the assay with 3T3-L1 adipocytes [2] (setting [3]), the “CRx F” value was determined as 1.0058.
On the same count and under the same terms, next, `CC(=O)Nc1ccc(O)cc1` [Acetaminophen]: 1.021; `C[C@H]1O[C@@H](O[C@H]2[C@@H](O)C[C@H](O[C@H]3[C@@H](O)C[C@H](O[C@H]4CC[C@@]5(C)[C@H](CC[C@@H]6[C@@H]5CC[C@]5(C)[C@@H](C7=CC(=O)OC7)CC[C@]65O)C4)O[C@@H]3C)O[C@@H]2C)C[C@H](O)[C@@H]1O` [Digitoxin]: 0.8801.
As for Inulin, the “CRx F” value with 3T3-L1 adipocytes [2] (setting [3]) is 1.0249. In the assay on human skeletal myoblasts (setting [4]), the “Xlsyz F(H)” value was found to be 1.0089. In the assay with human skeletal myoblasts (setting [5]), the “Xlsyz F(L)” value was found to be 1.3377.
For `c1ccc(CC2=NCCN2)cc1` [Tolazoline Hydrochloride], in the assay with 3T3-L1 adipocytes [2] (setting [3]), the “CRx F” value amounted to 0.967.
As to `O=C(O)C=Cc1ccccc1` [Cinnamic acid, 3-phenyl-2-propenoic acid], the “average fold increase in insulin-stimulated glucose uptake compared to vehicle treated control” value is recorded as 0.98 fold in the assay on 3T3-L1 adipocytes [1] (Cinnamic acid 3 μM, average of three biological replicates); 1.03 fold with 3T3-L1 adipocytes [1] (Cinnamic acid 6 μM, average of three biological replicates); 1.10 fold in the assay on 3T3-L1 adipocytes [1] (Cinnamic acid 12 μM, average of three biological replicates).
As for `Cl.N` [Ammonium Chloride], the “CRx F” value in the assay with 3T3-L1 adipocytes [2] was 0.8881. Also, the “Xlsyz F(H)” value in the assay with human skeletal myoblasts (setting [4]) is 1.2105. Also, the “Xlsyz F(L)” value in the assay on human skeletal myoblasts (setting [5]) is reported as 0.8482.
`[Ca+2].[Cl-].[Cl-]` [Calcium Chloride]: in the assay on 3T3-L1 adipocytes [2], the “CRx F” value worked out at 0.7358. Moreover, in the assay on human skeletal myoblasts, the “Xlsyz F(H)” value amounted to 1.2121 and the “Xlsyz F(L)” value stood at 1.0714.
On to `[Cl][Cu][Cl]` [Cupric Chloride], for which the “CRx F” value with 3T3-L1 adipocytes [2] (setting [3]) is on record as 1.3661. Besides, in the assay on human skeletal myoblasts (setting [4]), the “Xlsyz F(H)” value is listed as 1.25. Also, in the assay on human skeletal myoblasts (setting [5]), the “Xlsyz F(L)” value is 1.0643.
`COc1cc([C@@H]2c3cc4c(cc3[C@@H](O[C@@H]3O[C@@H]5CO[C@@H](C)O[C@H]5[C@H](O)[C@H]3O)[C@H]3COC(=O)[C@H]23)OCO4)cc(OC)c1O` [Etoposide]: the “CRx F” value in the assay with 3T3-L1 adipocytes [2] (setting [3]) turned out to be 1.037.
`C[C@H](N[C@@H](CCc1ccccc1)C(=O)O)C(=O)N1CCC[C@H]1C(=O)O` [Enalaprilat]: the “CRx F” value in the assay on 3T3-L1 adipocytes [2] (setting [3]) turned out to be 0.992. Also, in the assay with human skeletal myoblasts (setting [4]), the “Xlsyz F(H)” value is recorded as 0.8333. Also, the “Xlsyz F(L)” value with human skeletal myoblasts (setting [5]) was determined as 1.2739.
On to `CCN(CC)CC#CCOC(=O)C(O)(c1ccccc1)C1CCCCC1` (stereo not drawn) [Oxybutynin Chloride], for which the “CRx F” value in the assay on 3T3-L1 adipocytes [2] (setting [3]) is on record as 1.0483.
On the same count and under the same terms, under `C[C@H](CS)C(=O)N1CCC[C@H]1C(=O)O` [Captopril] stands 0.662; under `CCCCC1C(=O)N(c2ccccc2)N(c2ccccc2)C1=O` [Phenylbutazone], 1.2098.
On the same count and under the same terms, next, `NC(=O)N1c2ccccc2C=Cc2ccccc21` [Carbamazepine]: 0.7464.
In the case of Invertase, the “CRx F” value in the assay on 3T3-L1 adipocytes [2] (setting [3]) was 1.2175. Also, the “Xlsyz F(H)” value in the assay on human skeletal myoblasts (setting [4]) came out at 0.8561. For the same molecule, the “Xlsyz F(L)” value in the assay with human skeletal myoblasts (setting [5]) was 1.3974.
For `CC(=O)Nc1nnc(S(N)(=O)=O)s1` [Acetazolamide], in the assay with 3T3-L1 adipocytes [2] (setting [3]), the “CRx F” value was 0.8994.
Consider `CC(C)(C)NCC(O)c1cc(O)cc(O)c1` (stereo not drawn) [Terbutaline Sulfate], for which, in the assay on 3T3-L1 adipocytes [2] (setting [3]), the “CRx F” value turned out to be 1.2758.
Turning to `O=C1NC(=O)C(c2ccccc2)(c2ccccc2)N1` [PHENYTOIN], in the assay with 3T3-L1 adipocytes [2] (setting [3]), the “CRx F” value is reported as 1.1755.
With `CC(=O)O[C@H]1C[C@H](O[C@H]2[C@@H](O)C[C@H](O[C@H]3[C@@H](O)C[C@H](O[C@H]4CC[C@@]5(C)[C@H](CC[C@@H]6[C@@H]5CC[C@]5(C)[C@@H](C7=CC(=O)OC7)CC[C@]65O)C4)O[C@@H]3C)O[C@@H]2C)O[C@H](C)[C@H]1O` [Acetyldigitoxin], the “CRx F” value with 3T3-L1 adipocytes [2] (setting [3]) was determined as 0.8077. Further, the “Xlsyz F(H)” value in the assay on human skeletal myoblasts (setting [4]) came to 1.2593. Moreover, the “Xlsyz F(L)” value in the assay on human skeletal myoblasts (setting [5]) was found to be 1.3016.
For `Cc1cc(NS(=O)(=O)c2ccc(N)cc2)nc(C)n1` [Sulfasomidine], the “CRx F” value in the assay with 3T3-L1 adipocytes [2] (setting [3]) is 1.1803. Besides, in the assay on human skeletal myoblasts (setting [4]), the “Xlsyz F(H)” value was 1.3077. The “Xlsyz F(L)” value in the assay with human skeletal myoblasts (setting [5]) is 1.0165.
In the case of `CCS(=O)(=O)CCn1c([N+](=O)[O-])cnc1C` [Tinidazole], the “CRx F” value with 3T3-L1 adipocytes [2] (setting [3]) amounted to 1.0177.
The same measure, in the same setting: next, `Cc1onc(-c2c(Cl)cccc2Cl)c1C(=O)N[C@@H]1C(=O)N2[C@@H]1SC(C)(C)[C@@H]2C(=O)O` [Dicloxacillin Sodium]: 1.0042.
